From patent publication US8552220B2, “Therapeutic agent for Alzheimer's disease” (Tokyo Institute of Technology, priority 2008, dated 2013) come the findings set out here.

For data set [1], the target named is T1, recombinant human β-secretase (rhBACE-1) (Homo sapiens, UniProt P56817).
T1 construct: purchased Invitrogen
The experiment in a line: Measurement of 50% inhibition concentration (IC50) of β-secretase (BACE-1) enzyme, fluorescent substrate peptide. To be noted: rhBACE-1, pH 4.5, 37° C., 2.5 hr. The data set is classed as biochemical. How it is done: Compounds were dissolved in 0.1 M sodium acetate buffer (with 150 mM sodium chloride, pH 4.5) and 10% dimethylsulfoxide (DMSO). The solution with no compound was used as a negative control. Then, 15 μL of these solutions (final compound concentration: 0.3, 0.9, 3.0, 9.0, and 30.0 μM), 1 unit/mL of recombinant human β-secretase (rhBACE-1, Invitrogen), and 15 μL of the fluorescent substrate peptide were mixed in a black 384-well microtiter plate (Coaster). After mixtures were incubated in the dark at 37° C. for 2.5 hr, the fluorescence intensities of the mixtures were measured by fluorescence microplate reader (Wallac) at 545 nm for excitation and at 590 nm for emission. The inhibition ratio of each compound was calculated using the intensity of the solution without any compound as a negative control. The sequence of the peptide was Ser-Glu-Val-Asn-Leu-Asp-Ala-Glu-Lys-Arg, and labeled with fluorescent donor (Cy3) at Ser-1 and with quencher (Cy5Q) at Lys-9, respectively (Invitrogen) Inhibitory activities of each compound are shown in FIG. 1.

Data set [2] concerns Aβ-40 and Aβ-42 production. The experiment in a line: Inhibitory effect on Aβ-40 and Aβ-42 production in rat primary cultured cell (Aβ ELISA of culture medium). It counts as cell-based. To be noted: 72 hr, rat cerebral cortex primary culture. How it is done: Cerebral cortex was obtained from 19-20 day-old embryonic Wistar rat. The tissue was minced, dissociated using scalpel blades and Pasteur pipette in Hunks buffered solution, and centrifuged at 100 rpm. Precipitated cells were filtered using […] cell strainer, and single cells were prepared. These cells were suspended in Eagle's Minimum Essential Medium (EMEM) containing 10% Fetal bovine serum, and plated into 48-well tissue culture plates (Becton Dickinson) at 200 μL/well and 1.7×10^5 cells/cm^2. Cultures were incubated at 37° C. in a humidified atmosphere of 5% CO2. After 3, 5, and 7 days in culture, the medium was replaced, and after 9 days, CU532 was dissolved in DMSO and diluted in culture media so that the final concentration of DMSO in culture media was 0.1%, and each solution was added to each well at […] for 72 hr. The control solution contained 0.1% DMSO.
After 72 hr, Aβ-40 and Aβ-42 in culture media were measured using by Aβ ELISA kit (Wako). 100 μL of the culture medium and standard diluents were added to the antibody-coated plate, and incubated at 4° C. over night. Then the plate was washed by wash buffer 5 times and 100 μL of HRP-labeled detection antibody solution was added to the plate. After 1 hour, the plate was washed 5 times, and TMB chromogenic reagent was added to the plate. After 30 minute, stop solution was added and absorbance at 450 nm of the solution was measured by microplate reader (BIORAD). The concentration of Aβ in culture medium was calculated from the standard curve.

As a reminder, the IC50 is the point on the concentration scale where inhibition reaches its midpoint. One may read the melting point as the temperature of the solid-liquid transition.

T1 sequence (P56817 46-501): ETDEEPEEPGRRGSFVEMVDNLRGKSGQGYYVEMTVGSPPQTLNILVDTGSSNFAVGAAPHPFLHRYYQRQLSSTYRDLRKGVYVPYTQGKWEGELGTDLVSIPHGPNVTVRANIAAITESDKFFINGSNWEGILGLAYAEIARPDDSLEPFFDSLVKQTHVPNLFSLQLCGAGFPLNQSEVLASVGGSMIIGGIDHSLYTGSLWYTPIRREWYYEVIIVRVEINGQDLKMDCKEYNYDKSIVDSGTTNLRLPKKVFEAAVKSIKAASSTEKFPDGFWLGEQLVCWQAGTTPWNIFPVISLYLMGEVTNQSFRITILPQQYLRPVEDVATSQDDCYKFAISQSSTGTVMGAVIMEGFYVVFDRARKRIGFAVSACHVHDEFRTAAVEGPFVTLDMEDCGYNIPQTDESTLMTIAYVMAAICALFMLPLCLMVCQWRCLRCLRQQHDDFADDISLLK

On to `Nc1ccc(O)cc1/C=C/C(=O)CC(=O)/C=C/c1ccc(O)cc1` [CU488, (1E,6E)-1-(2-amino-5-hydroxyphenyl)-7-(4-hydroxyphenyl)hepta-1,6-diene-3,5-dione], for which the melting point is 186 to 192 °C. The IC50 in data set [1] worked out at 7.3 µM.
For `COc1cc(/C=C/C(=O)CC(=O)/C=C/c2ccc(O)cc2)ccc1[N+](=O)[O-]` [CU050, (1E,6E)-1-(4-hydroxyphenyl)-7-(3-methoxy-4-nitrophenyl)hepta-1,6-diene-3,5-dione], in that order: 190 to 192 °C and 16 µM.
As for `COc1cc(/C=C/C(=O)CC(=O)/C=C/c2ccc(O)c(OC)c2)ccc1O` [curcumin, reference compound], in data set [2], the “inhibitory effect on Aβ production” value was “no inhibitory effect”.
For `O=C(/C=C/c1ccc(O)cc1)CC(=O)/C=C/c1cc(O)ccc1Br` [CU532, (1E,6E)-1-(2-bromo-5-hydroxyphenyl)-7-(4-hydroxyphenyl)hepta-1,6-diene-3,5-dione], the melting point fell in the range of 182 to 186 °C. In data set [2] (at 0.3 μM), the “amount of Aβ-42 in culture medium” value is reported as “significantly decreased”. For the same compound, the “amount of Aβ-40 in culture medium” value in data set [2] (at 1 μM) was “significantly decreased”.
For the compound `COc1ccc([N+](=O)[O-])c(/C=C/C(=O)CC(=O)/C=C/c2ccc(O)cc2)c1` [CU481, (1E,6E)-1-(4-hydroxyphenyl)-7-(5-methoxy-2-nitrophenyl)hepta-1,6-diene-3,5-dione], the melting point was in the range of 151 to 155 °C. Further, the half-maximal inhibitory concentration (IC50) in data set [1] amounted to 1.2 µM.
Take `O=C(/C=C/c1ccc(O)cc1)CC(=O)/C=C/c1cc(O)ccc1[N+](=O)[O-]` [CU131, (1E,6E)-1-(5-hydroxy-2-nitrophenyl)-7-(4-hydroxyphenyl)hepta-1,6-diene-3,5-dione]: the melting point lay in the range of 187 to 194 °C. Besides, the IC50 in data set [1] was found to be 0.91 µM.
On the same counts, the results for `O=C(/C=C/c1ccc(O)cc1)CC(=O)/C=C/c1cc(OCc2ccccc2)ccc1[N+](=O)[O-]` [CU475, (1E,6E)-1-(5-benzyloxy-2-nitrophenyl)-7-(4-hydroxyphenyl)hepta-1,6-diene-3,5-dione] are 168 to 172 °C and 0.74 µM.
`O=C(/C=C/c1ccc(O)cc1Cl)CC(=O)/C=C/c1cc(O)ccc1[N+](=O)[O-]` [CU611, (1E,6E)-1-(2-chloro-4-hydroxyphenyl)-7-(5-hydroxy-2-nitrophenyl)hepta-1,6-diene-3,5-dione] gave a melting point of 132 to 136 °C.
For the compound `Nc1ccc(OCc2ccccc2)cc1/C=C/C(=O)CC(=O)/C=C/c1ccc(O)cc1` [CU489, (1E,6E)-1-(2-amino-5-benzyloxyphenyl)-7-(4-hydroxyphenyl)hepta-1,6-diene-3,5-dione], the melting point was in the range of 175 to 179 °C. For the same compound, the IC50 in data set [1] was 5.6 µM.
Take `O=C(/C=C/c1cc(O)ccc1-c1cccc2ccccc12)CC(=O)CCc1ccc(O)cc1` [CU542, (E)-1-[5-hydroxy-2-(naphthalen-1-yl)phenyl]-7-(4-hydroxyphenyl)hept-1-ene-3,5-dione]: the melting point was in the range of 138 to 142 °C.
Still for that read-out and setting: then `O=C(/C=C/c1ccc(O)cc1)CC(=O)/C=C/c1ccccc1-n1cncn1` [CU623, (1E,6E)-1-[2-(1H-1,2,4-triazol-1-yl)phenyl]-7-(4-hydroxyphenyl)hepta-1,6-diene-3,5-dione], with 186 to 192 °C.
Take `O=C(/C=C/c1ccc(O)cc1)CC(=O)/C=C/c1ccccc1-c1ccccc1` [CU472, (1E,6E)-1-(biphenyl-2-yl)-7-(4-hydroxyphenyl)hepta-1,6-diene-3,5-dione]: the melting point lay in the range of 180 to 188 °C.
On the same count and under the same terms, in the case of `CN(C)c1ccc(/C=C/C(=O)CC(=O)/C=C/c2ccc3cc[nH]c3c2)c(Cl)c1` [CU584, (1E,6E)-1-(2-chloro-4-dimethylaminophenyl)-7-(1H-indol-6-yl)hepta-1,6-diene-3,5-dione] it was 180 to 185 °C.
Still for that read-out and setting: then `O=C(/C=C/c1ccc(O)cc1)CC(=O)/C=C/c1ccccc1Br` [CU486, (1E,6E)-1-(2-bromophenyl)-7-(4-hydroxyphenyl)hepta-1,6-diene-3,5-dione], with 155 to 159 °C; and `COc1cc(O)ccc1/C=C/C(=O)CC(=O)/C=C/c1cc(O)ccc1-c1ccccc1` [CU582, (1E,6E)-1-(4-hydroxybiphenyl-2-yl)-7-(4-hydroxy-2-methoxyphenyl)hepta-1,6-diene-3,5-dione], with 108 to 114 °C; and `O=C(/C=C/c1ccc2cc[nH]c2c1)CC(=O)/C=C/c1cc(OCc2ccccc2)ccc1[N+](=O)[O-]` [CU588, (1E,6E)-1-(5-benzyloxy-2-nitrophenyl)-7-(1H-indol-6-yl)hepta-1,6-diene-3,5-dione], with 181 to 186 °C.
The compound `CN(C)c1ccc(/C=C/C(=O)CC(=O)/C=C/c2ccc(N(C)C)cc2[N+](=O)[O-])c([N+](=O)[O-])c1` showed a melting point of 245 to 250 °C.
On the same count and under the same terms, in the case of `O=C(/C=C/c1ccc(O)cc1)CC(=O)/C=C/c1ccccc1-c1cccc2ccccc12` [CU528, (1E,6E)-1-(4-hydroxyphenyl)-7-[2-(naphthalen-1-yl)phenyl]hepta-1,6-diene-3,5-dione] it was 95 to 101 °C; in that of `O=C(/C=C/c1ccc(O)cc1)CC(=O)/C=C/c1ccccc1C(F)(F)F` [CU467, (1E,6E)-1-(4-hydroxyphenyl)-7-(2-trifluoromethylphenyl)hepta-1,6-diene-3,5-dione], 181 to 185 °C; in that of `COCOc1ccc([N+](=O)[O-])c(/C=C/C(=O)CC(=O)/C=C/c2ccc(O)cc2)c1` [CU649, (1E,6E)-1-(4-hydroxyphenyl)-7-[5-(methoxymethoxy)-2-nitrophenyl]hepta-1,6-diene-3,5-dione], 175 to 180 °C.
The compound `O=C(/C=C/c1ccc(O)cc1)CC(=O)/C=C/c1cc(O)ccc1-c1cccc2ccccc12` [CU538, (1E,6E)-1-[5-hydroxy-2-(naphthalen-1-yl)phenyl]-7-(4-hydroxyphenyl)hepta-1,6-diene-3,5-dione] gave a melting point of 215 to 221 °C.
